pIC50: −log10 of the molar value. Where “and” joins values, the source holds several entries; their conditions need not be identical. Equal entries are not always repeated.
Test system: NCI-H1876 complex spheroid viability
Experiment: Anticancer human tumor NCI-H1876 cell line growth inhibition [LSD1];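 note: spheroids exposed to compounds for one week before readout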;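 for viability, T/C: 100% = DMSO vehicle-treated spheroids so lower means fewer viable cells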
Conditions: for viability, T/C: stronger effect = lower value
In short: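 Drug combinations with the LSD1 inhibitor iadademstat tested on tumor cells co-cultured as spheroids with endothelial cells and mesenchymal stem cells. Concentrations descended in half-log increments from clinical Cmax or 10 microM.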

[1] = curve of first compound, second compound 0.1 µM
[2] = curve of first compound, second compound 0.316 µM
[3] = curve of first compound, second compound 1 µM
[4] = curve of first compound, second compound 3.16 µM
[5] = curve of first compound, second compound 10 µM
[6] = second compound 0.1 µM, first compound 0.0316 µM
[7] = second compound 0.1 µM, first compound 0.1 µM
[8] = second compound 0.1 µM, first compound 0.316 µM
[9] = second compound 0.1 µM, first compound 1 µM
[10] = second compound 0.316 µM, first compound 0.0316 µM
[11] = second compound 0.316 µM, first compound 0.1 µM
[12] = second compound 0.316 µM, first compound 0.316 µM
[13] = second compound 0.316 µM, first compound 1 µM
[14] = second compound 1 µM, first compound 0.0316 µM
[15] = second compound 1 µM, first compound 0.1 µM
[16] = second compound 1 µM, first compound 0.316 µM
[17] = second compound 1 µM, first compound 1 µM
[18] = second compound 3.16 µM, first compound 0.0316 µM
[19] = second compound 3.16 µM, first compound 0.1 µM
[20] = second compound 3.16 µM, first compound 0.316 µM
[21] = second compound 3.16 µM, first compound 1 µM
[22] = second compound 10 µM, first compound 0.0316 µM
[23] = second compound 10 µM, first compound 0.1 µM
[24] = second compound 10 µM, first compound 0.316 µM
[25] = second compound 10 µM, first compound 1 µM
[26] = second compound 0.1 µM, first compound 0.00316 µM
[27] = second compound 0.1 µM, first compound 0.01 µM
[28] = second compound 0.316 µM, first compound 0.00316 µM
[29] = second compound 0.316 µM, first compound 0.01 µM
[30] = second compound 1 µM, first compound 0.00316 µM
[31] = second compound 1 µM, first compound 0.01 µM
[32] = second compound 3.16 µM, first compound 0.00316 µM
[33] = second compound 3.16 µM, first compound 0.01 µM
[34] = second compound 10 µM, first compound 0.00316 µM
[35] = second compound 10 µM, first compound 0.01 µM

`CC1COCCN1c1cc(C2(S(C)(=N)=O)CC2)nc(-c2ccnc3[nH]ccc23)n1` (configuration not stated) + NC1CC1c1ccc(-c2cccc(O)c2)cc1 showed a pIC50 [1] of 5.16, a pIC50 [2] of 5.18 and a pIC50 [3] of 5.16. It also gave a pIC50 [4] of 5.20, a pIC50 [5] of 5.25 and a viability, T/C [6] of 110%. For the same molecule, the viability, T/C [7] was 114%, the viability, T/C [8] was 112% and the viability, T/C [9] was 111%. The viability, T/C (second compound 0.1 µM, first compound 3.16 µM) was 94.4%, the viability, T/C (second compound 0.1 µM, first compound 10 µM) was 28.4% and the viability, T/C [10] was 119%. It also gave a viability, T/C [11] of 111%, a viability, T/C [12] of 113% and a viability, T/C [13] of 118%. For the same molecule, the viability, T/C (second compound 0.316 µM, first compound 3.16 µM) was 88.5%, the viability, T/C (second compound 0.316 µM, first compound 10 µM) was 27.5% and the viability, T/C [14] was 124%. For the same molecule, the viability, T/C [15] was 119%, the viability, T/C [16] was 118% and the viability, T/C [17] was 111%. It also gave a viability, T/C (second compound 1 µM, first compound 3.16 µM) of 96.1%, a viability, T/C (second compound 1 µM, first compound 10 µM) of 28% and a viability, T/C [18] of 114%. It also gave a viability, T/C [19] of 126%, a viability, T/C [20] of 120% and a viability, T/C [21] of 111%. For the same molecule, the viability, T/C (second compound 3.16 µM, first compound 3.16 µM) was 78.4%, the viability, T/C (second compound 3.16 µM, first compound 10 µM) was 30.3% and the viability, T/C [22] was 112%. The viability, T/C [23] was 112%, the viability, T/C [24] was 114% and the viability, T/C [25] was 99.8%. For the same molecule, the viability, T/C (second compound 10 µM, first compound 3.16 µM) was 70.8% and the viability, T/C (second compound 10 µM, first compound 10 µM) was 29.4%.
Work on `CC[C@@]1(O)C(=O)OCc2c1cc1n(c2=O)Cc2cc3c(CN(C)C)c(O)ccc3nc2-1` + NC1CC1c1ccc(-c2cccc(O)c2)cc1 yielded a pIC50 [1] of 8.74, a pIC50 [2] of 8.74 and a pIC50 [3] of 8.74. It also gave a pIC50 [4] of 8.76, a pIC50 [5] of 8.77 and a viability, T/C (second compound 0.1 µM, first compound 0.000316 µM) of 102%. It also gave a viability, T/C (second compound 0.1 µM, first compound 0.001 µM) of 87.4%, a viability, T/C [26] of 15.2% and a viability, T/C [27] of 10.4%. The viability, T/C [6] was 6.25%, the viability, T/C [7] was 4.62% and the viability, T/C (second compound 0.316 µM, first compound 0.000316 µM) was 102%. For the same molecule, the viability, T/C (second compound 0.316 µM, first compound 0.001 µM) was 86.2%, the viability, T/C [28] was 15.2% and the viability, T/C [29] was 9.15%. It also gave a viability, T/C [10] of 6.84%, a viability, T/C [11] of 4.48% and a viability, T/C (second compound 1 µM, first compound 0.000316 µM) of 104%. It also gave a viability, T/C (second compound 1 µM, first compound 0.001 µM) of 87%, a viability, T/C [30] of 15.2% and a viability, T/C [31] of 9.89%. The viability, T/C [14] was 6.39%, the viability, T/C [15] was 4.42% and the viability, T/C (second compound 3.16 µM, first compound 0.000316 µM) was 100%. For the same molecule, the viability, T/C (second compound 3.16 µM, first compound 0.001 µM) was 81.5%, the viability, T/C [32] was 15.6% and the viability, T/C [33] was 10.3%. The viability, T/C [18] was 7.55%, the viability, T/C [19] was 4.94% and the viability, T/C (second compound 10 µM, first compound 0.000316 µM) was 97.8%. The viability, T/C (second compound 10 µM, first compound 0.001 µM) was 76.8%, the viability, T/C [34] was 17.8% and the viability, T/C [35] was 15.2%. It also gave a viability, T/C [22] of 8.77% and a viability, T/C [23] of 6.56%.
`CC(C)c1c(-c2ccccc2)nc2c(C#N)c[nH]n2c1=O` was tested, and the viability, T/C (compound 0.0316 µM) was 93.8% and 104%, the viability, T/C (compound 0.1 µM) was 94.6% and 101% and the viability, T/C (compound 0.316 µM) was 92.2% and 103%. The viability, T/C (compound 1 µM) was 92% and 102%, the viability, T/C (compound 3.16 µM) was 89.2% and 94.4% and the viability, T/C (compound 10 µM) was 27.8% and 33.1%. The pIC50 (curve of compound) was 5.18 and 5.14.
For `O=C(C=Cn1cnc(-c2cc(C(F)(F)F)cc(C(F)(F)F)c2)n1)NNc1cnccn1` + NC1CCC(NC2CC2c2ccccc2)CC1, the pIC50 [1] was 7.04, the pIC50 [2] was 7.09 and the pIC50 [3] was 7.08. It also gave a pIC50 [4] of 7.12, a pIC50 [5] of 7.19 and a viability, T/C [26] of 98.9%. For the same molecule, the viability, T/C [27] was 91.6%, the viability, T/C [6] was 90.2% and the viability, T/C [7] was 46.7%. For the same molecule, the viability, T/C [8] was 23.5%, the viability, T/C [9] was 23.2% and the viability, T/C [28] was 104%. The viability, T/C [29] was 96.6%, the viability, T/C [10] was 87.2% and the viability, T/C [11] was 42.1%. The viability, T/C [12] was 22.4%, the viability, T/C [13] was 20.3% and the viability, T/C [30] was 94.4%. For the same molecule, the viability, T/C [31] was 96%, the viability, T/C [14] was 86.9% and the viability, T/C [15] was 43.1%. It also gave a viability, T/C [16] of 22.9%, a viability, T/C [17] of 20.6% and a viability, T/C [32] of 93.8%. The viability, T/C [33] was 90.9%, the viability, T/C [18] was 85.8% and the viability, T/C [19] was 38.1%. The viability, T/C [20] was 23.2%, the viability, T/C [21] was 20.6% and the viability, T/C [34] was 94.4%. It also gave a viability, T/C [35] of 89.1%, a viability, T/C [22] of 75.7% and a viability, T/C [23] of 35.1%. The viability, T/C [24] was 19.3% and the viability, T/C [25] was 19.8%.
In the case of `NC1CCC(NC2CC2c2ccccc2)CC1` (configuration not stated), the viability, T/C (compound 0.316 µM) was 98.5% and 109%, the viability, T/C (compound 1 µM) was 102% [middle of 25 runs] and the viability, T/C (compound 3.16 µM) was 102% [middle of 25 runs]. The viability, T/C (compound 10 µM) was 103% [middle of 23 runs] and the pIC50 (compound alone, run of 02/15/2022) was less than 5.00.

— PubChem BioAssay AID1918957 (Molecular Pharmacology Branch, DTP, NCI, 2023)
